Data taken from patent publication US12404295B2, “(Hetero)aryl-methyl-thio-beta-D-galactopyranoside derivatives” (Idorsia Pharmaceuticals Ltd, priority 2019, dated 2025).
Read-outs that look alike come from different tables or passages of the source.

Tests used:
[1] = target: human Gal-1 (hGal-1) (Homo sapiens (Human), UniProt P09382); assay: competitive binding assay: biotinylated hGal-1 binding to microplate-adsorbed asialofetuin (ASF); conditions: Table 15; read-out: IC50 (Galectin-1 inhibition)
Chain of human Gal-1 (hGal-1) (P09382 whole entry): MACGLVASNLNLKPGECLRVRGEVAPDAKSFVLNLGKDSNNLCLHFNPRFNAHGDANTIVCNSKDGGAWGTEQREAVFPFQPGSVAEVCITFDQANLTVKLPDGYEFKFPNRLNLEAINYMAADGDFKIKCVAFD
Outline: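 Spectrophotometric competition readout: after compound and biotinylated hGal-1 (300-1000 ng/mL) sit 3 h at 4° C on adsorbed asialofetuin, streptavidin-peroxidase (1 h, 4° C) and ABTS reveal residual binding. Reported IC50 values are means of repeat runs.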

[2] = target: human Gal-3 (hGal-3) (Homo sapiens (Human), UniProt P17931); assay: competitive binding assay: biotinylated hGal-3 binding to microplate-adsorbed asialofetuin (ASF)
Chain of human Gal-3 (hGal-3) (P17931 whole entry): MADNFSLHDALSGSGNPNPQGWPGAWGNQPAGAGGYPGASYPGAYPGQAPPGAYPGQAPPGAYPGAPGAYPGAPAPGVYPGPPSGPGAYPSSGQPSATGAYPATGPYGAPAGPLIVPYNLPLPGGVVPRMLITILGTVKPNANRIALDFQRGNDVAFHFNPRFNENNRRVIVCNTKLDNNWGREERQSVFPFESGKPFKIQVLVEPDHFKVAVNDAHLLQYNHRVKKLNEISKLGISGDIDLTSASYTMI
Outline: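 Serially diluted compounds compete with biotinylated hGal-3 binding to adsorbed asialofetuin (3 hours, 4° C). After washing, streptavidin-peroxidase at 80 ng/mL for 1 hour at 4° C, with ABTS colour read-out. IC50 values are averaged over repeated runs.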

[3] = Gal-3 inhibition, binding of biotinylated hGal-3 to ASF, mean values, read-out: IC50
[4] = Table 5, read-out: IC50 (Gal-3 inhibition)
[5] = Table 11, read-out: IC50 (Gal-3 inhibition)
[6] = Table 9, 2-OMe-Gal inhibitors, read-out: IC50 (Gal-3 inhibition)

Row | Compound | IC50 [1] | IC50 [2, 3] | also measured
1 | CC(C)(O)[C@@H](S[C@@H]1O[C@H](CO)[C@H](O)[C@H](n2cc(-c3cc(F)c(F)c(F)c3)nn2)[C@H]1O)c1cccnc1C(F)(F)F [Example 2.31.118S., (2S,3R,4S,5R,6R)-2-(((S)-2-Hydroxy-2-methyl-1-(2-(trifluoromethyl)pyridin-3-yl)propyl)thio)-6-(hydroxymethyl)-4-(4-(3,4,5-trifluorophenyl)-1H-1,2,3-triazol-1-yl)tetrahydro-2H-pyran-3,5-diol] | 8200 nM | 6210 nM | 
2 | Cc1nc(C)c([C@@H](S[C@@H]2O[C@H](CO)[C@H](O)[C@H](n3cc(-c4cc(F)c(F)c(F)c4)nn3)[C@H]2O)C2(O)CCC(F)(F)CC2)nc1C [Example 2.44.119R., (2S,3R,4S,5R,6R)-2-(((R)-(4,4-Difluoro-1-hydroxycyclohexyl)(3,5,6-trimethylpyrazin-2-yl)methyl)thio)-6-(hydroxymethyl)-4-(4-(3,4,5-trifluorophenyl)-1H-1,2,3-triazol-1-yl)tetrahydro-2H-pyran-3,5-diol] | 230 nM |  | IC50 [2, 4]: 30 nM
3 | CO[C@@H]1[C@@H](n2cc(-c3cc(F)c(F)c(F)c3)nn2)[C@@H](O)[C@@H](CO)O[C@H]1S[C@@H](c1nccc(Cl)c1Cl)C1(O)CCC(F)(F)CC1 [Example 2.44.143S.I., (2R,3R,4S,5R,6S)-6-(((S)-(3,4-Dichloropyridin-2-yl)(4,4-difluoro-1-hydroxycyclohexyl)methyl)thio)-2-(hydroxymethyl)-5-methoxy-4-(4-(3,4,5-trifluorophenyl)-1H-1,2,3-triazol-1-yl)tetrahydro-2H-pyran-3-ol] | 9770 nM |  | IC50 [2, 5]: 9970 nM
4 | CO[C@@H]1[C@@H](n2cc(-c3cc(F)c(F)c(F)c3)nn2)[C@@H](O)[C@@H](CO)O[C@H]1SC(c1ncccc1Cl)C1(O)CCC(F)(F)CC1 (stereo partly drawn) [Example 2.44.137.I., (2R,3R,4S,5R,6S)-6-(((3-Chloropyridin-2-yl)(4,4-difluoro-1-hydroxycyclohexyl)methyl)thio)-2-(hydroxymethyl)-5-methoxy-4-(4-(3,4,5-trifluorophenyl)-1H-1,2,3-triazol-1-yl)tetrahydro-2H-pyran-3-ol] | 4360 nM |  | IC50 [2, 6]: 140 nM
5 | CC(C)(O)C(S[C@@H]1O[C@H](CO)[C@H](O)[C@H](n2cc(-c3ccc(C#N)c(F)c3)nn2)[C@H]1O)c1ccccc1C(F)(F)F (stereo partly drawn) [Example 5.31.112., 4-(1-((2S,3R,4S,5R,6R)-3,5-Dihydroxy-2-((2-hydroxy-2-methyl-1-(2-(trifluoromethyl)phenyl)propyl)thio)-6-(hydroxymethyl)tetrahydro-2H-pyran-4-yl)-1H-1,2,3-triazol-4-yl)-2-fluorobenzonitrile] | 3580 nM | 1500 nM | 
6 | CO[C@@H]1[C@@H](n2cc(-c3ccc(Br)c(F)c3)nn2)[C@@H](O)[C@@H](CO)O[C@H]1SC(c1ncccc1C)C1(O)CCC(F)(F)CC1 (stereo partly drawn) [Example 12.44.126.I., (2R,3R,4S,5R,6S)-4-(4-(4-Bromo-3-fluorophenyl)-1H-1,2,3-triazol-1-yl)-6-(((4,4-difluoro-1-hydroxycyclohexyl)(3-methylpyridin-2-yl)methyl)thio)-2-(hydroxymethyl)-5-methoxytetrahydro-2H-pyran-3-ol] | 3240 nM |  | IC50 ([2]; Table 14, read-out: IC50 (Gal-3 inhibition)): 190 nM
7 | CO[C@@H]1[C@@H](n2cc(-c3cc(F)c(F)c(F)c3)nn2)[C@@H](O)[C@@H](CO)O[C@H]1S[C@H](c1noc(C2CC2)c1C)C1(O)CCC(F)(F)CC1 [Example 2.44.145R.I., (2R,3R,4S,5R,6S)-6-(((R)-(5-Cyclopropyl-4-methylisoxazol-3-yl)(4,4-difluoro-1-hydroxycyclohexyl)methyl)thio)-2-(hydroxymethyl)-5-methoxy-4-(4-(3,4,5-trifluorophenyl)-1H-1,2,3-triazol-1-yl)tetrahydro-2H-pyran-3-ol] | 1200 nM |  | IC50 [2, 5]: 250 nM
8 | CO[C@@H]1[C@@H](n2cc(-c3cc(F)c(F)c(F)c3)nn2)[C@@H](O)[C@@H](CO)O[C@H]1S[C@@H](c1noc(C2CC2)c1C)C1(O)CCC(F)(F)CC1 [Example 2.44.145S.I., (2R,3R,4S,5R,6S)-6-(((S)-(5-Cyclopropyl-4-methylisoxazol-3-yl)(4,4-difluoro-1-hydroxycyclohexyl)methyl)thio)-2-(hydroxymethyl)-5-methoxy-4-(4-(3,4,5-trifluorophenyl)-1H-1,2,3-triazol-1-yl)tetrahydro-2H-pyran-3-ol] | 31000 nM |  | IC50 [2, 5]: 11200 nM
9 | CO[C@@H]1[C@@H](n2cc(-c3cc(F)c(F)c(F)c3)nn2)[C@@H](O)[C@@H](CO)O[C@H]1S[C@H](c1ncccc1C1CC1)C1(O)CCC(F)(F)CC1 [Example 2.44.134R.I., (2R,3R,4S,5R,6S)-6-(((R)-(3-Cyclopropylpyridin-2-yl)(4,4-difluoro-1-hydroxycyclohexyl)methyl)thio)-2-(hydroxymethyl)-5-methoxy-4-(4-(3,4,5-trifluorophenyl)-1H-1,2,3-triazol-1-yl)tetrahydro-2H-pyran-3-ol [1,3-di-deoxy-1-((4,4-difluoro-1-hydroxy-cyclohexan-1-yl)-(3-(-cyclopropyl)pyridin-2-yl)methyl-(R)-thio)-2-O-methyl-3-[4-(3,4,5-trifluorophenyl)-1H-1,2,3-triazol-1-yl]-b-D-galactopyranoside]] | 110 nM |  | IC50 [2, 6]: 60 nM
10 | CCO[C@@H]1[C@@H](n2cc(-c3cc(F)c(F)c(F)c3)nn2)[C@@H](O)[C@@H](CO)O[C@H]1SC(c1ncccc1C)C1(O)CCC(F)(F)CC1 (stereo partly drawn) [Example 2.44.126.II., (2R,3R,4S,5R,6S)-6-(((4,4-Difluoro-1-hydroxycyclohexyl)(3-methylpyridin-2-yl)methyl)thio)-5-ethoxy-2-(hydroxymethyl)-4-(4-(3,4,5-trifluorophenyl)-1H-1,2,3-triazol-1-yl)tetrahydro-2H-pyran-3-ol] | 1320 nM | 160 nM | 
11 | CCn1ncc(Cl)c1[C@@H](S[C@@H]1O[C@H](CO)[C@H](O)[C@H](n2cc(-c3cc(F)c(F)c(F)c3)nn2)[C@H]1OC)C1(O)CCC(F)(F)CC1 [Example 2.44.139R.I., (2R,3R,4S,5R,6S)-6-(((R)-(4-Chloro-1-ethyl-1H-pyrazol-5-yl)(4,4-difluoro-1-hydroxycyclohexyl)methyl)thio)-2-(hydroxymethyl)-5-methoxy-4-(4-(3,4,5-trifluorophenyl)-1H-1,2,3-triazol-1-yl)tetrahydro-2H-pyran-3-ol] | 540 nM |  | IC50 ([2]; Table 10, 2-OMe-Gal inhibitors, read-out: IC50 (Gal-3 inhibition)): 320 nM
12 | (2S,3R,4S,5R,6R)-2-(((4-Hydroxy-2,2-dimethyltetrahydro-2H-pyran-4-yl)(2-(trifluoromethyl)phenyl)methyl)thio)-6-(hydroxymethyl)-4-(4-(3,4,5-trifluorophenyl)-1H-1,2,3-triazol-1-yl)tetrahydro-2H-pyran-3,5-diol [Example 2.43.102.] | 1900 nM |  | IC50 [2, 4]: 120 nM
13 | OC[C@H]1O[C@@H](S[C@H](c2ncccc2C2CC2)C2(O)CCC(F)(F)CC2)[C@H](O)[C@@H](n2cc(-c3cc(F)c(F)c(F)c3)nn2)[C@H]1O [Example 2.44.134R., (2S,3R,4S,5R,6R)-2-(((R)-(3-Cyclopropylpyridin-2-yl)(4,4-difluoro-1-hydroxycyclohexyl)methyl)thio)-6-(hydroxymethyl)-4-(4-(3,4,5-trifluorophenyl)-1H-1,2,3-triazol-1-yl)tetrahydro-2H-pyran-3,5-diol] | 50 nM | 10 nM | 
14 | OC[C@H]1O[C@@H](S[C@@H](c2ccccc2C(F)(F)F)C2(O)CC(F)(F)C2)[C@H](O)[C@@H](n2cc(-c3cc(F)c(F)c(F)c3)nn2)[C@H]1O [Example 2.33.112S.] | 21700 nM |  | IC50 [2, 4]: 11300 nM
15 | CC(C)(O)C(S[C@@H]1O[C@H](CO)[C@H](O)[C@H](n2cc(-c3cc(F)c(F)c(F)c3)nn2)[C@H]1O)c1ccccc1C(F)(F)F (stereo partly drawn) [Example 2.31.112., (2S,3R,4S,5R,6R)-2-((2-Hydroxy-2-methyl-1-(2-(trifluoromethyl)phenyl)propyl)thio)-6-(hydroxymethyl)-4-(4-(3,4,5-trifluorophenyl)-1H-1,2,3-triazol-1-yl)tetrahydro-2H-pyran-3,5-diol] | 5230 nM | 250 nM | 
16 | CO[C@@H]1[C@@H](n2cc(-c3cc(F)c(F)c(F)c3)nn2)[C@@H](O)[C@@H](CO)O[C@H]1S[C@H](c1ncccc1C(F)(F)F)C1(O)CCC(F)(F)CC1 [Example 2.44.125R.I., (2R,3R,4S,5R,6S)-6-(((R)-(4,4-Difluoro-1-hydroxycyclohexyl)(3-(trifluoromethyl)pyridin-2-yl)methyl)thio)-2-(hydroxymethyl)-5-methoxy-4-(4-(3,4,5-trifluorophenyl)-1H-1,2,3-triazol-1-yl)tetrahydro-2H-pyran-3-ol] | 260 nM |  | IC50 [2, 6]: 60 nM
17 | (2S,3R,4S,5R,6R)-2-(((S)-(2,3-Dichlorophenyl)(4,4-difluoro-1-hydroxycyclohexyl)methyl)thio)-6-(hydroxymethyl)-4-(4-(3,4,5-trifluorophenyl)-1H-1,2,3-triazol-1-yl)tetrahydro-2H-pyran-3,5-diol [Example 2.44.113S.] | 56800 nM |  | IC50 [2, 4]: 57500 nM
18 | CC(C)(O)[C@H](S[C@@H]1O[C@H](CO)[C@H](O)[C@H](n2cc(-c3cc(F)c(F)c(F)c3)nn2)[C@H]1O)c1cccnc1C(F)(F)F [Example 2.31.118R., (2S,3R,4S,5R,6R)-2-(((R)-2-hydroxy-2-methyl-1-(2-(trifluoromethyl)pyridin-3-yl)propyl)thio)-6-(hydroxymethyl)-4-(4-(3,4,5-trifluorophenyl)-1H-1,2,3-triazol-1-yl)tetrahydro-2H-pyran-3,5-diol] | 640 nM | 210 nM | 
